Several values for one entry are separate records, joined by “and”; a condition that tells them apart may be missing. Equal values may be shown once. Toxic doses and inconclusive results are not listed. Square brackets hold non-standard residues; d marks the D form. Peptide text beside a SMILES is read from it. * marks the point of attachment. Cbz = O=C(OCc1ccccc1)*; Nva = CCC[CH](N)C(=O)O
System: BDF1 mice, B16 melanoma ip, median survival T/C
Assay: NCI In Vivo Anticancer Drug Screen. Data for tumor model B16 Melanoma (intraperitoneal) in B6D2F1 (BDF1) mice
Details: endpoint: median survival time, higher = longer survival
How it was run: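 Transplantable tumor model; survival or tumor size measured; reported as T/C, treated over vehicle control.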

[1] = dose: 25.0 mg/kg/injection, schedule: Q01DX009 (ip), vehicle: Klucel (hydroxypropylcellulose) (HPC)
[2] = dose: 12.5 mg/kg/injection, schedule: Q01DX009 (ip), vehicle: saline
[3] = dose: 25.0 mg/kg/injection, schedule: Q01DX009 (ip), vehicle: saline
[4] = dose: 50.0 mg/kg/injection, schedule: Q01DX009 (ip), vehicle: saline with Tween-80
[5] = dose: 100.0 mg/kg/injection, schedule: Q01DX009 (ip), vehicle: saline with Tween-80
[6] = dose: 12.5 mg/kg/injection, schedule: Q01DX009 (ip), vehicle: Klucel (hydroxypropylcellulose) (HPC)
[7] = dose: 12.5 mg/kg/injection, schedule: Q01DX009 (ip), vehicle: saline with Tween-80
[8] = dose: 25.0 mg/kg/injection, schedule: Q01DX009 (ip), vehicle: saline with Tween-80

## CCCCNC(C)(C)C(SSSC(c1ccco1)C(C)(C)NCCCC)c1ccco1 (stereo not drawn)
dose: 3.13 mg/kg/injection, schedule: Q01DX009 (ip), vehicle: carboxymethylcellulose (CMC)
  T/C: 102 % of control
dose: 6.25 mg/kg/injection, schedule: Q01DX009 (ip), vehicle: carboxymethylcellulose (CMC)
  T/C: 102 % of control
dose: 12.5 mg/kg/injection, schedule: Q01DX009 (ip), vehicle: carboxymethylcellulose (CMC)
  T/C: 95 % of control
[1]
  T/C: 91 % of control
dose: 25.0 mg/kg/injection, schedule: Q01DX009 (ip), vehicle: carboxymethylcellulose (CMC)
  T/C: 86 % of control

## CSc1ccc2c(c1)N(CCCN(C)C)c1ccccc1S2
dose: 3.12 mg/kg/injection, schedule: Q01DX009 (ip), vehicle: saline
  T/C: 100 % of control
dose: 6.25 mg/kg/injection, schedule: Q01DX009 (ip), vehicle: saline
  T/C: 107 % of control and 112 % of control
[2]
  T/C: 97 % of control and 124 % of control
[3]
  T/C: 100 % of control and 124 % of control

## NOCc1cccc(CON)c1
dose: 12.5 mg/kg/injection, schedule: Q04DX003 (ip), vehicle: saline
  T/C: 123 % of control
dose: 25.0 mg/kg/injection, schedule: Q04DX003 (ip), vehicle: saline
  T/C: 118 % of control
dose: 50.0 mg/kg/injection, schedule: Q04DX003 (ip), vehicle: saline
  T/C: 115 % of control

## N=[N+]=CC(=O)CCC(NC(=O)C(CCC(=O)C=[N+]=N)NC(=O)CCC(N)C(=O)O)C(=O)O (stereo not drawn)
dose: 0.01 mg/kg/injection, schedule: Q01DX009 (ip), vehicle: other
  T/C: 96 % of control and 100 % of control and 106 % of control
dose: 0.05 mg/kg/injection, schedule: Q01DX009 (ip), vehicle: saline
  T/C: 100 % of control
dose: 0.1 mg/kg/injection, schedule: Q01DX009 (ip), vehicle: saline
  T/C: 117 % of control
dose: 0.1 mg/kg/injection, schedule: Q01DX009 (ip), vehicle: suspension in saline
  T/C: 90 % of control
dose: 0.2 mg/kg/injection, schedule: Q01DX009 (ip), vehicle: Klucel (hydroxypropylcellulose) (HPC)
  T/C: 90 % of control
dose: 0.2 mg/kg/injection, schedule: Q01DX009 (ip), vehicle: suspension in saline
  T/C: 103 % of control
dose: 0.4 mg/kg/injection, schedule: Q01DX009 (ip), vehicle: Klucel (hydroxypropylcellulose) (HPC)
  T/C: 92 % of control
dose: 0.4 mg/kg/injection, schedule: Q01DX009 (ip), vehicle: suspension in saline
  T/C: 101 % of control
dose: 0.5 mg/kg/injection, schedule: Q01DX009 (ip), vehicle: other
  T/C: 87 % of control
dose: 0.8 mg/kg/injection, schedule: Q01DX009 (ip), vehicle: Klucel (hydroxypropylcellulose) (HPC)
  T/C: 100 % of control
dose: 0.8 mg/kg/injection, schedule: Q01DX009 (ip), vehicle: suspension in saline
  T/C: 100 % of control
dose: 1.6 mg/kg/injection, schedule: Q01DX009 (ip), vehicle: Klucel (hydroxypropylcellulose) (HPC)
  T/C: 100 % of control
dose: 1.6 mg/kg/injection, schedule: Q01DX009 (ip), vehicle: suspension in saline
  T/C: 105 % of control
dose: 2.5 mg/kg/injection, schedule: Q04DX003 (ip), vehicle: water
  T/C: 105 % of control
dose: 5.0 mg/kg/injection, schedule: Q04DX003 (ip), vehicle: water
  T/C: 105 % of control
dose: 10.0 mg/kg/injection, schedule: Q04DX003 (ip), vehicle: other
  T/C: 122 % of control
dose: 10.0 mg/kg/injection, schedule: Q04DX003 (ip), vehicle: water
  T/C: 107 % of control
dose: 5.0 micrograms/kg/injection, schedule: Q01DX009 (ip), vehicle: water
  T/C: 123 % of control
dose: 10.0 micrograms/kg/injection, schedule: Q01DX009 (ip), vehicle: water
  T/C: 94 % of control
dose: 50.0 micrograms/kg/injection, schedule: Q01DX009 (ip), vehicle: water
  T/C: 115 % of control
dose: 100.0 micrograms/kg/injection, schedule: Q01DX009 (ip), vehicle: water
  T/C: 89 % of control

## CC(Br)C(=O)NC(Cc1ccccc1)C(=O)O (stereo not drawn)
[4]
  T/C: 94 % of control
[5]
  T/C: 91 % of control

## CCCNCCCN
[2]
  T/C: 102 % of control
[3]
  T/C: 105 % of control
dose: 50.0 mg/kg/injection, schedule: Q01DX009 (ip), vehicle: saline
  T/C: 89 % of control

## CC1COS(=O)O1 (stereo not drawn)
dose: 10.0 mg/kg/injection, schedule: Q01DX009 (ip), vehicle: saline sonified
  T/C: 102 % of control
dose: 20.0 mg/kg/injection, schedule: Q01DX009 (ip), vehicle: saline sonified
  T/C: 100 % of control
dose: 40.0 mg/kg/injection, schedule: Q01DX009 (ip), vehicle: saline sonified
  T/C: 102 % of control

## O=C(NCCN1CC1)C(=O)NCCN1CC1
dose: 1.5 mg/kg/injection, schedule: Q01DX009 (ip), vehicle: saline with Tween-80
  T/C: 153 % of control
dose: 3.12 mg/kg/injection, schedule: Q04DX003 (ip), vehicle: saline with Tween-80
  T/C: 178 % of control
dose: 6.25 mg/kg/injection, schedule: Q04DX003 (ip), vehicle: saline with Tween-80
  T/C: 168 % of control

## O=[N+]([O-])CC1(O)CCCCC1
[6]
  T/C: 102 % of control
[1]
  T/C: 94 % of control

## CCCC(=O)OC1C=C2N3C(=O)C4CC56C(=CC(OC(C)=O)C7OC75)N4C(=O)C3CC26C2OC12 (stereo not drawn)
dose: 0.13 mg/kg/injection, schedule: Q01DX009 (ip), vehicle: Klucel (hydroxypropylcellulose) (HPC)
  T/C: 90 % of control
dose: 0.25 mg/kg/injection, schedule: Q01DX009 (ip), vehicle: Klucel (hydroxypropylcellulose) (HPC)
  T/C: 101 % of control
dose: 0.5 mg/kg/injection, schedule: Q01DX009 (ip), vehicle: Klucel (hydroxypropylcellulose) (HPC)
  T/C: 90 % of control

## Cc1c2cc(Cl)c3ccccc3c2c[n+]2ccccc12
dose: 3.12 mg/kg/injection, schedule: Q01DX009 (ip), vehicle: saline with Tween-80
  T/C: 110 % of control
dose: 6.25 mg/kg/injection, schedule: Q01DX009 (ip), vehicle: saline with Tween-80
  T/C: 113 % of control
[7]
  T/C: 110 % of control
[8]
  T/C: 115 % of control
[4]
  T/C: 115 % of control

## CCCC(NC(=O)C(Cc1ccccc1)NC(=O)OCc1ccccc1)C(=O)O (stereo not drawn) (Cbz-Phe-[Nva]-OH; configuration not given here)
[4]
  T/C: 95 % of control
[5]
  T/C: 92 % of control

## CCCCCCCCCCCCCC[N+](C)(C)CC(=O)O
[7]
  T/C: 93 % of control
[8]
  T/C: 91 % of control
[4]
  T/C: 86 % of control

## NC(=O)c1csc(C2OC(CO)C(O)C2O)n1 (stereo not drawn)
dose: 25.0 mg/kg/injection, schedule: Q01DX009 (ip), vehicle: water
  T/C: 103 % of control
dose: 50.0 mg/kg/injection, schedule: Q01DX009 (ip), vehicle: water
  T/C: 99 % of control
dose: 100.0 mg/kg/injection, schedule: Q01DX009 (ip), vehicle: water
  T/C: 104 % of control
dose: 200.0 mg/kg/injection, schedule: Q01DX009 (ip), vehicle: water
  T/C: 111 % of control
dose: 400.0 mg/kg/injection, schedule: Q01DX009 (ip), vehicle: water
  T/C: 110 % of control
dose: 800.0 mg/kg/injection, schedule: Q01DX009 (ip), vehicle: water
  T/C: 99 % of control

## Cc1nnc(NC(=O)CCl)s1
[8]
  T/C: 97 % of control
[4]
  T/C: 105 % of control
[5]
  T/C: 97 % of control

## Cc1ccc(C(=O)NC2C(=O)NC(C(C)C)C(=O)N3CCCC3C(=O)N(C)CC(=O)N(C)C(C(C)C)C(=O)OC2C)c2c1Oc1c(c(C(=O)NC3C(=O)NC(C(C)C)C(=O)N4CCCC4C(=O)N(C)CC(=O)N(C)C(C(C)C)C(=O)OC3C)c3nc(-c4ccccc4)c(=O)oc3c1C)N2 (stereo not drawn)
dose: 0.13 mg/kg/injection, schedule: Q04DX003 (ip), vehicle: saline + alcohol
  T/C: 124 % of control
dose: 0.13 mg/kg/injection, schedule: Q04DX003 (ip), vehicle: water
  T/C: 155 % of control
dose: 0.25 mg/kg/injection, schedule: Q04DX003 (ip), vehicle: saline + alcohol
  T/C: 152 % of control
dose: 0.5 mg/kg/injection, schedule: Q04DX003 (ip), vehicle: saline + alcohol
  T/C: 156 % of control
dose: 0.5 mg/kg/injection, schedule: Q04DX003 (ip), vehicle: water
  T/C: 163 % of control
dose: 1.0 mg/kg/injection, schedule: Q04DX003 (ip), vehicle: saline + alcohol
  T/C: 191 % of control
dose: 1.0 mg/kg/injection, schedule: Q04DX003 (ip), vehicle: water
  T/C: 173 % of control

## CC1(S)CCC2CC1C2(C)C (stereo not drawn)
[6]
  T/C: 94 % of control
[1]
  T/C: 94 % of control
dose: 50.0 mg/kg/injection, schedule: Q01DX009 (ip), vehicle: Klucel (hydroxypropylcellulose) (HPC)
  T/C: 89 % of control

## O=NN(CCF)C(=O)NC1CCC(=O)NC1=O (stereo not drawn)
dose: 1.88 mg/kg/injection, schedule: Q01DX001 (ip), vehicle: saline
  T/C: 105 % of control
dose: 7.5 mg/kg/injection, schedule: Q01DX001 (ip), vehicle: saline
  T/C: 120 % of control
dose: 15.0 mg/kg/injection, schedule: Q01DX001 (ip), vehicle: saline
  T/C: 166 % of control
dose: 30.0 mg/kg/injection, schedule: Q01DX001 (ip), vehicle: saline
  T/C: 189 % of control
dose: 60.0 mg/kg/injection, schedule: Q01DX001 (ip), vehicle: saline
  T/C: 209 % of control
